Data as given in US8318186B2, “Use of at least a fatty ester for preparing a composition designed to inhibit 5-α-reductase activity, in pharmacology, in particular dermatology, in cosmetics and as food additive” (Laboratoires Expanscience, priority 2000, dated 2012).
Where “and” joins values, the source holds several entries; their conditions need not be identical. Identical values can stand only once. Marks after values point to notes of the source that are not given here.

Tested on: 5α-reductase
Assay: Fatty acid esters on 5α-reductase activity, conversion of testosterone to 5α-dihydrotestosterone in normal human dermal fibroblast cultures (Example 4)
Format: cell-based
Set-up: key to group by 5α-reductase inhibitory activity: group A with the highest inhibitory activity; group B with an intermediate inhibitory activity
Details: for inhibition of the 5α-reductase activity: Example 4, p<0.05; for 5α-DHT formed per culture well, mean / 5α-DHT formed per culture well, single well: after 24 of incubation, DMSO 0.1% (v/v); for 5α-DHT formed per culture well, single well: single replicate; for group by 5α-reductase inhibitory activity: tested at 1, 10 and 100 μg/ml
Description: The fibroblast culture medium (FCM) consisted of MEM/M199 (3:1, v/v) supplemented with penicillin (50 IU/ml), streptomycin (50 μg/ml), sodium bicarbonate (0.2%, w/v) and FCS (10%, v/v).
The assay system consisted of normal human dermal fibroblasts cultured as a monolayer. The fibroblasts were isolated from a residue from abdominal plastic surgery performed on a person (subject BIOPREDIC No. I0013). The cells were used at the fifth passage; they were cultured until the monolayers were confluent in FCM medium at 37° C. in a humid atmosphere containing 5% CO2.
The fibroblast incubation medium (FIM) consisted of FCM supplemented with tritiated testosterone (1.6×10^−7 M, that is 6.32 μCi/ml) and nonradiolabeled testosterone (3.84×10^−6 M)
The test products and finasteride were taken up in DMSO before being diluted in the incubation medium. […]
The fibroblast cultures were preincubated in the presence of the test products or of the reference product for 2 hours before adding the substrate, testosterone. For this step, the test products and the reference product were prepared in the FCM medium.
After preincubation, the fibroblast cultures were incubated in the presence of the test products or of the reference product prepared in the FIM medium for 22 hours at 37° C. in a humid atmosphere containing 5% CO2. Control cultures were incubated in the FIM medium in the absence of test products and of reference product. […]
Each experimental condition was tested in triplicate.
After the incubation period, the cells were subjected to the action of ultrasound in the FIM medium. The cellular lysates thus obtained were extracted with dichloromethane. After evaporation, the dry residues were taken up in methanol and were deposited on 60F254 silica plates (MERCK, reference 5554).
The migration solvent was a mixture of dichloromethane and ether (7:3, v/v) At the end of the migration, the silica plates were read using a BERTHOLD radioactivity scanner.
The metabolizing of testosterone to 5α-dihydro-testosterone under the various experimental conditions was calculated: the results (areas of the 5α-dihydrotestosterone peaks counted by the BERTHOLD scanner) were expressed in pmol of 5α-dihydro-testosterone formed per culture well. They were also expressed as a percentage of the 5α-reductase activity present in the “DMSO control” group.
The groups of data (control group and treated groups) were treated by a one-way analysis of variance (ANOVA 1, p<0.05), followed by a DUNNETT's test (p<0.05). The effect of the test products and of the reference product was compared with the “DMSO control” group. The effects of the test products were compared to each other by a two-way analysis of variance (ANOVA 2, p<0.05, factor 1=concentration and factor 2=treatment).
The same materials and methods are used as in example 3 above.
It was proposed to evaluate the effect of fatty acid esters on the 5α-reductase activity. An in vitro model of normal human dermal fibroblast cultures was selected. The products tested were chosen from the group of fatty acid esters varying in the length and the functionality of the fatty chain, and the nature of the alkoxy group. These esters are the following: methyl oleate, methyl linoleate, methyl stearate, methyl laurate, methyl undecylenate, butyl oleate, oleyl oleate and methyl ricinoleate.

## CCCCCCCC/C=C\CCCCCCCC(=O)OCCCC [Butyl oleate, butyl oleate]
1 μg/ml
  5α-reductase activity as percentage of the “DMSO 0.1% (v/v)” group: 79 percentage of the “DMSO 0.1% (v/v)” group
  inhibition of the 5α-reductase activity: 21%
  5α-DHT formed per culture well, mean: 9.00* +/− pmol of 5α-DHT formed/culture well
  5α-DHT formed per culture well, single well: 10.64 pmol of 5α-DHT formed/culture well and 8.28 pmol of 5α-DHT formed/culture well and 8.08 pmol of 5α-DHT formed/culture well
10 μg/ml
  5α-reductase activity as percentage of the “DMSO 0.1% (v/v)” group: 55 percentage of the “DMSO 0.1% (v/v)” group
  inhibition of the 5α-reductase activity: 45%
  5α-DHT formed per culture well, mean: 6.21* +/− pmol of 5α-DHT formed/culture well
  5α-DHT formed per culture well, single well: 6.24 pmol of 5α-DHT formed/culture well and 5.04 pmol of 5α-DHT formed/culture well and 7.36 pmol of 5α-DHT formed/culture well
100 μg/ml
  5α-reductase activity as percentage of the “DMSO 0.1% (v/v)” group: 51 percentage of the “DMSO 0.1% (v/v)” group
  inhibition of the 5α-reductase activity: 49%
  5α-DHT formed per culture well, mean: 5.77* +/− pmol of 5α-DHT formed/culture well
  5α-DHT formed per culture well, single well: 5.20 pmol of 5α-DHT formed/culture well and 6.72 pmol of 5α-DHT formed/culture well and 5.40 pmol of 5α-DHT formed/culture well
  group by 5α-reductase inhibitory activity: A

## CCCCCCCCCCCC(=O)OC [Methyl laurate, methyl laurate]
1 μg/ml
  5α-reductase activity as percentage of the “DMSO 0.1% (v/v)” group: 57 percentage of the “DMSO 0.1% (v/v)” group
  5α-DHT formed per culture well, mean: 6.49* +/− pmol of 5α-DHT formed/culture well
  5α-DHT formed per culture well, single well: 5.76 pmol of 5α-DHT formed/culture well and 6.88 pmol of 5α-DHT formed/culture well and 6.84 pmol of 5α-DHT formed/culture well
10 μg/ml
  5α-reductase activity as percentage of the “DMSO 0.1% (v/v)” group: 77 percentage of the “DMSO 0.1% (v/v)” group
  5α-DHT formed per culture well, mean: 8.75 pmol of 5α-DHT formed/culture well
  5α-DHT formed per culture well, single well: 6.84 pmol of 5α-DHT formed/culture well and 9.88 pmol of 5α-DHT formed/culture well and 9.52 pmol of 5α-DHT formed/culture well
100 μg/ml
  5α-reductase activity as percentage of the “DMSO 0.1% (v/v)” group: 86 percentage of the “DMSO 0.1% (v/v)” group
  5α-DHT formed per culture well, mean: 9.80 pmol of 5α-DHT formed/culture well
  5α-DHT formed per culture well, single well: 8.48 pmol of 5α-DHT formed/culture well and 11.96 pmol of 5α-DHT formed/culture well and 8.96 pmol of 5α-DHT formed/culture well
  group by 5α-reductase inhibitory activity: B

## CCCCC/C=C\C/C=C\CCCCCCCC(=O)OC [Methyl linoleate, methyl linoleate]
1 μg/ml
  5α-reductase activity as percentage of the “DMSO 0.1% (v/v)” group: 58 percentage of the “DMSO 0.1% (v/v)” group
  inhibition of the 5α-reductase activity: 42%
  5α-DHT formed per culture well, mean: 6.60* +/− pmol of 5α-DHT formed/culture well
  5α-DHT formed per culture well, single well: 7.04 pmol of 5α-DHT formed/culture well and 6.40 pmol of 5α-DHT formed/culture well and 6.36 pmol of 5α-DHT formed/culture well
10 μg/ml
  5α-reductase activity as percentage of the “DMSO 0.1% (v/v)” group: 60 percentage of the “DMSO 0.1% (v/v)” group
  inhibition of the 5α-reductase activity: 40%
  5α-DHT formed per culture well, mean: 6.87* +/− pmol of 5α-DHT formed/culture well
  5α-DHT formed per culture well, single well: 6.00 pmol of 5α-DHT formed/culture well and 6.60 pmol of 5α-DHT formed/culture well and 8.00 pmol of 5α-DHT formed/culture well
100 μg/ml
  5α-reductase activity as percentage of the “DMSO 0.1% (v/v)” group: 71 percentage of the “DMSO 0.1% (v/v)” group
  inhibition of the 5α-reductase activity: 29%
  5α-DHT formed per culture well, mean: 8.05* +/− pmol of 5α-DHT formed/culture well
  5α-DHT formed per culture well, single well: 8.56 pmol of 5α-DHT formed/culture well and 8.04 pmol of 5α-DHT formed/culture well and 7.56 pmol of 5α-DHT formed/culture well
  group by 5α-reductase inhibitory activity: B

## CCCCCC[C@@H](O)C/C=C\CCCCCCCC(=O)OC [Methyl ricinoleate, methyl ricinoleate]
1 μg/ml
  5α-reductase activity as percentage of the “DMSO 0.1% (v/v)” group: 63 percentage of the “DMSO 0.1% (v/v)” group
  inhibition of the 5α-reductase activity: 37%
  5α-DHT formed per culture well, mean: 7.19* +/− pmol of 5α-DHT formed/culture well
  5α-DHT formed per culture well, single well: 6.52 pmol of 5α-DHT formed/culture well and 8.36 pmol of 5α-DHT formed/culture well and 6.68 pmol of 5α-DHT formed/culture well
10 μg/ml
  5α-reductase activity as percentage of the “DMSO 0.1% (v/v)” group: 62 percentage of the “DMSO 0.1% (v/v)” group
  inhibition of the 5α-reductase activity: 38%
  5α-DHT formed per culture well, mean: 7.04* +/− pmol of 5α-DHT formed/culture well
  5α-DHT formed per culture well, single well: 7.84 pmol of 5α-DHT formed/culture well and 7.40 pmol of 5α-DHT formed/culture well and 5.88 pmol of 5α-DHT formed/culture well
100 μg/ml
  5α-reductase activity as percentage of the “DMSO 0.1% (v/v)” group: 38 percentage of the “DMSO 0.1% (v/v)” group
  inhibition of the 5α-reductase activity: 62%
  5α-DHT formed per culture well, mean: 4.33* +/− pmol of 5α-DHT formed/culture well
  5α-DHT formed per culture well, single well: 3.68 pmol of 5α-DHT formed/culture well and 4.52 pmol of 5α-DHT formed/culture well and 4.80 pmol of 5α-DHT formed/culture well
  group by 5α-reductase inhibitory activity: A

## CCCCCCCCCCCCCCCCCC(=O)OC [Methyl stearate, methyl stearate]
1 μg/ml
  5α-reductase activity as percentage of the “DMSO 0.1% (v/v)” group: 59 percentage of the “DMSO 0.1% (v/v)” group
  inhibition of the 5α-reductase activity: 41%
  5α-DHT formed per culture well, mean: 6.69* +/− pmol of 5α-DHT formed/culture well
  5α-DHT formed per culture well, single well: 6.92 pmol of 5α-DHT formed/culture well and 6.08 pmol of 5α-DHT formed/culture well and 7.08 pmol of 5α-DHT formed/culture well
10 μg/ml
  5α-reductase activity as percentage of the “DMSO 0.1% (v/v)” group: 65 percentage of the “DMSO 0.1% (v/v)” group
  inhibition of the 5α-reductase activity: 35%
  5α-DHT formed per culture well, mean: 7.43* +/− pmol of 5α-DHT formed/culture well
  5α-DHT formed per culture well, single well: 8.80 pmol of 5α-DHT formed/culture well and 6.72 pmol of 5α-DHT formed/culture well and 6.76 pmol of 5α-DHT formed/culture well
100 μg/ml
  5α-reductase activity as percentage of the “DMSO 0.1% (v/v)” group: 57 percentage of the “DMSO 0.1% (v/v)” group
  inhibition of the 5α-reductase activity: 43%
  5α-DHT formed per culture well, mean: 6.52* +/− pmol of 5α-DHT formed/culture well
  5α-DHT formed per culture well, single well: 6.88 pmol of 5α-DHT formed/culture well and 5.92 pmol of 5α-DHT formed/culture well and 6.76 pmol of 5α-DHT formed/culture well
  group by 5α-reductase inhibitory activity: B

## C=CCCCCCCCCC(=O)OC [Methyl undecylenate, methyl undecylenate]
1 μg/ml
  5α-reductase activity as percentage of the “DMSO 0.1% (v/v)” group: 60 percentage of the “DMSO 0.1% (v/v)” group
  inhibition of the 5α-reductase activity: 40%
  5α-DHT formed per culture well, mean: 6.89* +/− pmol of 5α-DHT formed/culture well
  5α-DHT formed per culture well, single well: 6.56 pmol of 5α-DHT formed/culture well and 7.44 pmol of 5α-DHT formed/culture well and 6.68 pmol of 5α-DHT formed/culture well
10 μg/ml
  5α-reductase activity as percentage of the “DMSO 0.1% (v/v)” group: 68 percentage of the “DMSO 0.1% (v/v)” group
  inhibition of the 5α-reductase activity: 32%
  5α-DHT formed per culture well, mean: 7.71* +/− pmol of 5α-DHT formed/culture well
  5α-DHT formed per culture well, single well: 7.68 pmol of 5α-DHT formed/culture well and 7.84 pmol of 5α-DHT formed/culture well and 7.60 pmol of 5α-DHT formed/culture well
100 μg/ml
  5α-reductase activity as percentage of the “DMSO 0.1% (v/v)” group: 74 percentage of the “DMSO 0.1% (v/v)” group
  inhibition of the 5α-reductase activity: 26%
  5α-DHT formed per culture well, mean: 8.48* +/− pmol of 5α-DHT formed/culture well
  5α-DHT formed per culture well, single well: 8.68 pmol of 5α-DHT formed/culture well and 7.76 pmol of 5α-DHT formed/culture well and 9.00 pmol of 5α-DHT formed/culture well
  group by 5α-reductase inhibitory activity: B
